In patent US9925274B2, “Delphinidin complex as an antiphlogistic or immunosuppressive active ingredient” (priority 2012, dated 2018):
“Also recorded” adds a separate entry of the source. Read-outs that look alike come from different tables or passages of the source.

Key:
NFKB = assay: Concentration of NFKB in the nucleus of monocytes after stimulation with LPS and/or delphinidin (immunofluorescence nuclear staining; Examples 6-8); assay type: cell-based; design: Inhibitory effect on the cell immune response compared to hydrocortisone: dose or concentration left out as unconfirmed
Protocol: For healthy test subjects, the concentration of NFKB in the nucleus of monocytes after stimulation with LPS and/or delphinidin was assayed by means of immunofluorescence nuclear staining for NFKB and expressed in relation to nonstimulated cells. NFKB is activated by various stimuli, especially inflammatory and stress-associated stimuli.
The following procedure was carried out and shown in FIG. 1 from left to right, with the stimulation/incubation of the cells (1 ml in each case of RPMI-1640 comprising 1 million cells in the exponential growth phase) taking place at 37° C. in a well of a 24-well polystyrene cell culture dish and the specified concentrations being final concentrations: • “1.5 h 10 μg LPS”—Stimulation of the cells for 1.5 h with 10 μg/ml LPS (control) • “24 h prestim. 5 μM Del-Cl; 1.5 h 10 μg LPS”—24 h prestimulation of the cells with 5 μM delphinidin chloride (dissolved in RPMI-1640 cell medium) and then 1.5 h stimulation with 10 μg/ml LPS • “1.5 h 5 μM Del-Cl+10 μg LPS”—1.5 h simulation of the cells with 10 μg/ml LPS and 5 μM delphinidin chloride (dissolved in RPMI-1640 cell medium) • “24 h prestim. 5 μM Del-Cl; 1.5 h 5 μM Del-Cl”—24 h prestimulation of the cells with 5 μM delphinidin chloride (dissolved in RPMI-1640 cell medium) and then renewed stimulation with 5 μM delphinidin chloride (dissolved in RPMI-1640 cell medium) for 1.5 h • “24 h prestim. 5 μM Del-Cl; 1.5 h 5 μM Del-Cl+10 μg LPS”—24 h prestimulation of the cells with 5 μM delphinidin chloride (dissolved in RPMI-1640 cell medium) and then renewed stimulation with 5 μM delphinidin chloride (dissolved in RPMI-1640 cell medium) and 10 μg/ml LPS for 1.5 h
A procedure analogous to the methodology in example 5 was carried out and shown in FIGS. 2a and 2b from left to right, with the stimulation/incubation of the cells (1 ml in each case of RPMI-1640 comprising 1 million cells in the exponential growth phase) taking place at 37° C. in a well of a 24-well polystyrene cell culture dish and the specified concentrations being final concentrations:
FIG. 2a: • “1.5 h 10 μg LPS”—Stimulation of the cells for 1.5 h with 10 μg/ml LPS (control) • “1.5 h 5 μM Del-Cl+10 μg LPS”—1.5 h simulation of the cells with 10 μg/ml LPS and 5 μM delphinidin chloride (dissolved in RPMI-1640 cell medium) • “1.5 h hydrocortisone+10 μg LPS”—Stimulation of the cells for 10^−5 M hydrocortisone and 10 μg/ml LPS for 1.5 h
FIG. 2b: • “1.5 h 10 μg LPS”—Stimulation of the cells for 1.5 h with 10 μg/ml LPS (control) • “1.5 h 10 μM Del-Cl+10 μg LPS”—1.5 h simulation of the cells with 10 μg/ml LPS and 10 μM delphinidin chloride (dissolved in RPMI-1640 cell medium)
A procedure analogous to the methodology in examples 5 and 6 was carried out and shown in FIG. 3 from left to right, with the stimulation/incubation of the cells (1 ml in each case of RPMI-1640 comprising 1 million cells in the exponential growth phase) taking place at 37° C. in a well of a 24-well polystyrene cell culture dish and the specified concentrations being final concentrations: • “1.5 h 2.5 μM Del-Cl”—1.5 h stimulation of the cells with 2.5 μM delphinidin chloride (dissolved in RPMI-1640 cell medium) • “1.5 h 5 μM Del-Cl”—1.5 h simulation of the cells with 5 μM delphinidin chloride (dissolved in RPMI-1640 cell medium) • “1.5 h 10 μM Del-Cl”—1.5 h stimulation of the cells with 10 μM delphinidin chloride (dissolved in RPMI-1640 cell medium) • “1.5 h hydrocortisone”—1.5 h stimulation of the cells with […] hydrocortisone

[1] = tested on: tight junction protein claudin-5 mRNA expression in cEND cells; assay: claudin-5 mRNA expression in cEND cells with or without TNFα (Example 10); assay type: cell-based, murine
Excerpt: The surrogate marker used for the tightness of the barrier was the expression of the tight junction protein claudin-5 (Forster C. Tight junctions and the modulation of barrier function in disease. Histochem Cell Biol. 2008; 130: 55-70) and the procedure carried out was analogous to example 8.

[2] = tested on: Cc17 [chemokine (C—C motif) ligand 7] mRNA expression in cEND cells; conditions: for Effect on the TNFα-induced rise in Cc17 mRNA expression: TNFα 24 h
[3] = Stability experiments in aqueous solution: 0.9% NaCl, 37° C., delphinidin content by HPLC (Example 5); assay type: physicochemical; conditions: dark, start 1.584 mg/ml (complex) or 0.0216 mg/ml (uncomplexed)
Protocol: The content of delphinidin chloride in the delphinidin-containing solutions was determined by using a reverse-phase HPLC method similar to the one already described above. This used the following reagents: • Purified water • Methanol for chromatography • Formic acid, p. a. • 1 M Hydrochloric acid as volumetric solution.
The solutions were produced at room temperature and then stored in closed vials in the dark at 37° C.
After 1, 2, 3 and 4 h, the delphinidin content was determined. The table below specifies the ascertained content as a percentage of the above-stated starting concentration.

[4] = Solubility of delphinidin chloride in aqueous cyclodextrin solutions (Example 1); conditions: neutral aqueous solution with 10% by weight cyclodextrin (β-CD 2%) or pure water; excess delphinidin chloride; stirred in the dark at 30° C. for 20 h; 0.22 μm filtration
[5] = conclusion from the measured results

Oc1cc(O)c2cc(O)c(-c3cc(O)c(O)c(O)c3)[o+]c2c1.[Cl-] [delphinidin, Delphinidin chloride]
Inhibition of the LPS-mediated immune response (NFKB in the nucleus) (NFKB; 1.5 h 5 μM Del-Cl + 10 μg/ml LPS simultaneously, FIG. 1, FIG. 2a): inhibition of the immune response; also recorded: inhibited at least just as well as by means of addition of hydrocortisone | Inhibition of the LPS-mediated immune response (NFKB in the nucleus) (NFKB; 1.5 h 10 μM Del-Cl + 10 μg/ml LPS, repeat experiment FIG. 2b): significantly reduced | Inhibition of the cell immune response with varying concentration (NFKB in the nucleus) (NFKB; 1.5 h 2.5, 5 and 10 μM Del-Cl, without LPS, FIG. 3): increase in the delphinidin-mediated inhibition of the cell immune response (dose effect) | Inhibition of the LPS-mediated immune response (NFKB in the nucleus) (NFKB; 24 h prestimulation 5 μM Del-Cl, then 1.5 h 5 μM Del-Cl + 10 μg/ml LPS, FIG. 1): further intensified (additive effect) | Inhibition of the LPS-mediated immune response (NFKB in the nucleus) (NFKB; 24 h prestimulation with 5 μM Del-Cl, then 1.5 h 10 μg/ml LPS, FIG. 1): (weakly) inhibits | Inhibitory effect on the cell immune response compared to hydrocortisone (NFKB; appropriately high delphinidin concentration, 1.5 h, comparison hydrocortisone, FIG. 3): comparable to that of hydrocortisone | Effect on the TNFα-mediated decrease in claudin-5 mRNA expression ([1]; then delphinidin 0.1 μM, FIG. 5): counteracted this TNFα-mediated decrease | Effect on the TNFα-mediated decrease in claudin-5 mRNA expression ([1]; then delphinidin 1 μM, FIG. 5): counteracted this TNFα-mediated decrease | Barrier of the blood-brain barrier after inflammation [1, 5]: strongly increases | Effect on claudin-5 mRNA expression without prior TNFα exposure ([1]; delphinidin alone in the cell culture medium, FIG. 5): increase in claudin-5 mRNA expression | Effect on the TNFα-induced rise in Cc17 mRNA expression ([2]; then delphinidin 0.1 μM for a further 24 h, FIG. 4): distinct suppression or inhibition | Effect on the TNFα-induced rise in Cc17 mRNA expression ([2]; then delphinidin 1 μM for a further 24 h, FIG. 4): distinct suppression or inhibition | Antiphlogistic effect on the blood-brain barrier after inflammation relative to dexamethasone [2, 5]: at least equivalent | Effect on Cc17 expression without prior TNFα exposure ([2]; delphinidin alone in the cell culture medium, FIG. 4): suppression of Cc17 expression | Delphinidin content as a percentage of the starting concentration ([3]; 0 h): 100% | Delphinidin content as a percentage of the starting concentration ([3]; 1 h): 8.3% | Delphinidin content as a percentage of the starting concentration ([3]; 2 h): 6.5% | Delphinidin content as a percentage of the starting concentration ([3]; 3 h): 5.6% | Delphinidin content as a percentage of the starting concentration ([3]; 4 h): 5.1% | Attainable solubility, Delphinidin chloride [4]: 70 µg/mL

C[C@]12CCC(=O)C=C1CC[C@@H]1[C@@H]2[C@@H](O)C[C@@]2(C)[C@H]1CC[C@]2(O)C(=O)CO [hydrocortisone, reference compound]
Inhibition of the LPS-mediated immune response (NFKB in the nucleus) (NFKB; 1.5 h 10^−5 M hydrocortisone + 10 μg/ml LPS, FIG. 2a): inhibited
